# ChEMBL document CHEMBL5321282, “Design, Synthesis, and Biological Evaluation of Esculetin-Furoxan-DEAC Ternary Hybrids for Anti-Triple Negative Breast Cancer” (J Med Chem, 2023)
# Active and inactive are the calls of the source. No cut-off for these calls is given here.
# Experiments:
# MDA-MB-231 [1] = experiment: Induction of apoptosis in human MDA-MB-231 cells assessed as late apoptotic cells at 10 nM incubated for 24 hrs by Annexin V-FITC/PI staining based flow cytometric analysis (reference value: 4.90%); format: functional
# [2] = Drug localization in mitochondria of human MDA-MB-231 cells at 1 uM incubated for 1 hr measured after 40 mins by mito-tracker probe based confocal laser scanning microscopic analysis; format: ADME; conditions: mda-mb-231, 1.667 h, time 100 min
# MDA-MB-231 [3] = experiment: Induction of apoptosis in human MDA-MB-231 cells assessed as total apoptotic cells at 5 to 20 nM incubated for 24 hrs by Annexin V-FITC/PI staining based flow cytometric analysis (Rvb =10.03%); format: functional; conditions: dose 5-20 nM
# MDA-MB-231 [4] = experiment: Antiproliferative activity against human MDA-MB-231 cells assessed as induction of ROS production at 20 nM in presence of NAC measured after 24 hrs by MTT assay; format: functional, cell-based
# [5] = Toxicity in BALB/C mouse xenografted with human MDA-MB-231 cells assessed as lung damage at 2.5 to 5 mg/kg, ip administered every 2 days measured after 3 weeks by H and E staining based analysis; format: organism-based; conditions: in vivo, 504 h, dose 2.5-5 mg/kg
# MCF7 = experiment: Antiproliferative activity against human MCF7 cells assessed as inhibition of cell growth measured after 48 hrs by MTT assay; format: functional, cell-based; conditions: MCF7, 48 h
# MDA-MB-231 [6] = experiment: Induction of apoptosis in human MDA-MB-231 cells assessed as viable cells at 20 nM incubated for 24 hrs by Annexin V-FITC/PI staining based flow cytometric analysis (reference value: 90.1%); format: functional; conditions: read-out: Activity
# MDA-MB-231 [7] = experiment: Antiproliferative activity against human MDA-MB-231 cells assessed as effect on NO level at 25 uM incubated for 2 hrs; format: functional, cell-based
# MDA-MB-231 [8] = experiment: Induction of apoptosis in human MDA-MB-231 cells assessed as effect on ANT level at 5 to 20 nM incubated for 8 hrs by Western blotting analysis; format: functional, cell-based; conditions: dose 5-20 nM
# MDA-MB-231 [9] = experiment: Induction of cell cycle arrest in human MDA-MB-231 cells assessed as accumulation of cells at S phase at 10 nM measured after 24 hrs by PI staining based flow cytometric analysis (Rvb =24.1%); format: functional
# HCT-116 = experiment: Antiproliferative activity against human HCT-116 cells assessed as inhibition of cell growth measured after 48 hrs by MTT assay; format: functional, cell-based; conditions: HCT-116, 48 h
# MDA-MB-231 [10] = experiment: Induction of apoptosis in human MDA-MB-231 cells assessed as increase in cytoplasmic SMAC level at 5 to 20 nM incubated for 8 hrs by Western blotting analysis; format: functional, cell-based; conditions: dose 5-20 nM
# MDA-MB-231 [11] = experiment: Induction of ROS production in human MDA-MB-231 cells measured after 24 hrs by DCFH-DA staining based fluorescence microscopic analysis; format: functional, cell-based; conditions: dose 5-20 nM
# MDA-MB-231 [12] = experiment: Induction of apoptosis in human MDA-MB-231 cells assessed as early apoptotic cells at 20 nM incubated for 24 hrs by Annexin V-FITC/PI staining based flow cytometric analysis (reference value: 4.90%); format: functional
# MDA-MB-231 [13] = experiment: Induction of apoptosis in human MDA-MB-231 cells assessed as early apoptotic cells at 10 nM incubated for 24 hrs by Annexin V-FITC/PI staining based flow cytometric analysis (reference value: 4.90%); format: functional
# MDA-MB-231 [14] = experiment: Induction of apoptosis in human MDA-MB-231 cells assessed as necrotic cells at 20 nM incubated for 24 hrs by Annexin V-FITC/PI staining based flow cytometric analysis (reference value: 0.11%); format: functional
# MDA-MB-231 [15] = experiment: Induction of apoptosis in human MDA-MB-231 cells assessed as increase in CypD level incubated for 8 hrs by Western blotting analysis; format: functional, cell-based; conditions: dose 5-20 nM
# [16] = Selectivity index, ratio of IC50 for cytotoxicity against human L02 cells to IC50 for antiproliferative activity against human MDA-MB-231 cells; format: toxicity, cell-based; conditions: L02 cells versus MDA-MB-231 cells, read-out: Ratio IC50
# MDA-MB-231 [17] = experiment: Induction of apoptosis in human MDA-MB-231 cells assessed as decrease in mitochondrial SMAC level at 5 to 20 nM incubated for 8 hrs by Western blotting analysis; format: functional, cell-based; conditions: dose 5-20 nM
# A549 = experiment: Antiproliferative activity against human A549 cells assessed as inhibition of cell growth measured after 48 hrs by MTT assay; format: functional, cell-based; conditions: A549, 48 h
# MDA-MB-231 [18] = experiment: Induction of mitochondrial membrane potential depolarization in human MDA-MB-231 cells assessed as increase in green fluorescence at 5 to 20 nM incubated for 24 hrs by JC-1 staining based inverted fluorescent microscopic analysis; format: functional, cell-based; conditions: dose 5-20 nM
# MDA-MB-231 [19] = experiment: Induction of apoptosis in human MDA-MB-231 cells assessed as early apoptotic cells at 5 nM incubated for 24 hrs by Annexin V-FITC/PI staining based flow cytometric analysis (reference value: 4.90%); format: functional
# [20] = Toxicity in BALB/C mouse xenografted with human MDA-MB-231 cells assessed as heart damage at 2.5 to 5 mg/kg, ip administered every 2 days measured after 3 weeks by H and E staining based analysis; format: organism-based; conditions: in vivo, 504 h, dose 2.5-5 mg/kg
# MDA-MB-231 [21] = experiment: Induction of apoptosis in human MDA-MB-231 cells assessed as necrotic cells at 5 nM incubated for 24 hrs by Annexin V-FITC/PI staining based flow cytometric analysis (reference value: 0.11%); format: functional
structure (smiles),measurement,setting,value
CCN(CC)c1ccc2cc(C(=O)OCCCCCOc3cc4ccc(=O)oc4cc3OCCCCCCOc3no[n+]([O-])c3S(=O)(=O)c3ccccc3)c(=O)oc2c1,Activity,MDA-MB-231 [1],30%
same,Drug uptake,[2],Active
same,Activity,MDA-MB-231 [3],71.69%
same,Activity,MDA-MB-231 [4],inactive
same,Activity,[5],Non-Toxic
same,IC50,MCF7,2140 nM
same,viability at 0.02 µM,MDA-MB-231 [6],25.2%
same,Activity,MDA-MB-231 [7],Active
same,Activity,MDA-MB-231 [8],inactive
same,Activity,MDA-MB-231 [9],25.9%
same,IC50,HCT-116,4140 nM
same,Activity,MDA-MB-231 [10],Active
same,Activity,MDA-MB-231 [11],Dose-Dependent Effect
same,Activity,MDA-MB-231 [12],31.9%
same,Activity,MDA-MB-231 [13],21.9%
same,Activity,MDA-MB-231 [14],3.93%
same,Activity,MDA-MB-231 [15],Dose-Dependent Effect
same,selectivity ratio,[16],1490
same,Activity,MDA-MB-231 [17],Active
same,IC50,A549,840 nM
same,Activity,MDA-MB-231 [18],Active
same,Activity,MDA-MB-231 [19],12.2%
same,Activity,[20],Non-Toxic
same,Activity,MDA-MB-231 [21],0.26%
